One may read the half-life as the time in which the quantity being followed falls by half. Usually Tmax stands for the time at which the peak concentration occurs.

The test system of one series is rabbits. The conditions noted are these: intravenous and oral applications; cited from earlier work.
The test system of series [1] is conscious male chinchilla rabbits. In words: conscious rabbit ED model, low SNP dose (0.02 mg/kg i.v.), PDE5-resistant ED. It counts as in vivo. On the procedure:
(§1) The conscious rabbit ED model previously described (Bischoff and Schneider 2001) was used for the investigation of Erectile function. In brief: conscious male chinchilla rabbits (3-4 kg) were orally treated with the test compounds or with vehicle via gavage, followed by i.v. injection of the NO-donnor sodium nitro-prusside (SNP) in the ear vein, 90 minutes after oral applications. The SNP injections were done in a high dose setting (0.2 mg/kg SNP i.v) and a low dose setting (0.02 mg/kg SNP i.v.) corresponding to the general ED-population and the PDE5 non-responder ED-population, respectively. Penile length was quantified in 5 minutes intervals after injection of the SNP.

Series [2] has the same test system. In words: conscious rabbit ED model, high SNP dose (0.2 mg/kg i.v.), general ED population. It counts as in vivo. The conditions noted are these: summary of Example 1; rabbits and rats; in the range of vardenafil. On the procedure: as §1
The conscious rabbit ED model previously described (Bischoff and Schneider 2001) was used for the investigation of Erectile function as described in Example 1. The SNP injections were done in a high dose setting (0.2 mg/kg SNP i.v) corresponding to the general ED-population in which PDE5 inhibitors are fully active. Penile length was quantified in 5 minutes intervals after injection of the SNP.
The conscious rabbit ED model as described in Expample 1 and Example 6 was used for assessment of responderrates. […] Penile length was quantified in 5 minutes intervals after injection of the SNP. […]

For series [3] the test system is unchanged. In words: haemodynamic effects by telemetry in conscious rabbits. It counts as in vivo, rabbit. Conditions: stand alone. The text has this:
In brief, telemetric implants (C50 PXT-DSI®) were used. Signals were received with RMC1-DSI® receiver plates, compiled and analyzied with PONEMAH® physiology platform software.

Series [4] can be described thus: phase I study #14441, pharmacokinetics of co-administration. Conditions: for half-life / Tmax: male, human, plasma, po; for Tmax: read-out: median tmax. It counts as in vivo, human. The text has this:
The study was designed as a randomized, single-blind, placebo-controlled, group-comparison, dose-escalation study.

The test system of series [5] is involved metabolic enzymes. Conditions: stated as fact; cited from earlier work.
For series [6] the following is noted: previous studies; single administration of 2.0 mg BAY 60-4552; cited from earlier work.

With `COC(=O)N(C)c1c(N)nc(-c2nn(Cc3ccccc3F)c3ncccc23)nc1N` [BAY 63-2521, methyl-4,6-diamino-2-[1-(2-fluorobenzyl)-1H-pyrazolo[3,4-b]pyridin-3-yl]-5-pyrimidinyl-(methyl)carbamate], the erections result with rabbits is “induced stable erections”.

With `COC(=O)Nc1c(N)nc(-c2nn(Cc3ccccc3F)c3ncccc23)nc1N` [BAY 60-4552, methyl-4,6-diamino-2-[1-(2-fluorobenzyl)-1H-pyrazolo[3,4-b]pyridin-3-yl]-5-pyrimidinylcarbamate], in series [1] (low SNP 0.02 mg/kg i.v., 3 and 10 mg/kg p.o. stand alone), the “penile erection (penile length)” value is “able to induce physiologically relevant erections”. Further, in series [2], the “erections, stand alone treatment” value is “significant erections”. In addition, in series [3] (1 mg/kg p.o.), the “decrease in mean arterial blood pressure” value was −5 mmHg and the heart rate increase result is listed as “+24 bpm”. Moreover, in series [3] (3 mg/kg), the “decrease in blood pressure” value is given as −11 mmHg and the heart rate increase result is listed as “+51 bpm”. Also, in series [3] (10 mg/kg), the “decrease in blood pressure” value is given as −22 mmHg and the heart rate increase entry is reported as “+103 bpm”. In addition, in series [4] (BAY 60-4552 1 mg to 2 mg in combination with vardenafil 2.5 mg to 20 mg), the “dose proportionality of exposure” value is listed as “increased in proportion to the dose”. Moreover, in series [4], the “exposure following concomitant administration versus each compound alone” value is reported as “consistent with historical data”, the half-life was in the range of 13 to 14 h and the time to peak (Tmax) was in the range of 0.5 to 1 h. Moreover, in series [4] (in vivo), the “time linearity of pharmacokinetics” value was “time linear”. For the same compound, the “inhibitor or inducer of the involved metabolic enzymes” value in series [5] is given as “neither vardenafil nor BAY 60-4552 is an inhibitor or inducer”. In addition, the “effect on heart rate and blood pressure” value in series [6] is “no clinically relevant effect on heart rate and blood pressure”.

As to `CCCc1nn(C)c2c(=O)[nH]c(-c3cc(S(=O)(=O)N4CCN(C)CC4)ccc3OCC)nc12` [Sildenafil, 3-[2-ethoxy-5-(4-methylpiperazin-1-yl)sulfonyl-phenyl]-7-methyl-9-propy 1-2,4,7,8-tetrazabicyclo[4.3.0]nona-3,8,10-trien-5-one, reference compound], the “penile erection (penile length)” value in series [1] (rabbit, in vivo) is recorded as “not able to produce any physiologically relevant erection”.

On to `CCCc1nc(C)c2c(=O)[nH]c(-c3cc(S(=O)(=O)N4CCN(CC)CC4)ccc3OCC)nn12` [Vardenafil, 2-(2-Ethoxy-5-(4-ethylpiperazin-1-yl-1-sulfonyl)phenyl)-5-methyl-7-propyl-3H-imidazo (5,1-f) (1,2,4)triazin-4-one, reference compound], for which, in series [3] (1 mg/kg p.o.), the “decrease in mean arterial blood pressure” value is −4 mmHg and the heart rate increase entry is on record as “+14 bpm”. The “dose proportionality of exposure” value in series [4] (20 mg vardenafil level) is “slightly higher than proportional exposure”. In series [4], the “exposure following concomitant administration versus each compound alone” value is given as “consistent with historical data”, the half-life lay in the range of 3 to 5 h and the Tmax lay within 0.75 to 1 h. Besides, the “dose proportionality of AUC and Cmax” value in series [4] (vardenafil 2.5 mg to 10 mg in combination with 1 mg or 2 mg BAY 60-4552) is “dose-proportional”.

These data come from patent US20140288079A1, “SGC STIMULATORS OF SGC ACTIVATORS IN COMBINATION WITH PDE5 INHBITORS FOR THE TREATMENT OF ERECTILE DYSFUNCTION” (BAYER PHARMA AKTIENGESELLSCHAFT, priority 2009, published 2014).
